# Biological target: human P2X3 receptor (Homo sapiens (Human), UniProt P56373)
# Experiment: Evaluation of human P2X3 receptor inhibitory activity (Test Example 1-2, FLIPR 384, 384-well, 150 nM ATP)
# Type: cell-based
# Conditions: C6BU-1 cell transfected with human P2X3 receptor gene; method of Test Example 1-2 (compounds I-301 to I-483); read-out: IC50 (human P2X3 receptor inhibitory activity)
# Method in brief: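 Human P2X3 stably expressed in C6BU-1 cells, Fluo-3-AM loaded, read on FLIPR at pH 7.5 HEPES buffer. Compound added 5 min before 150 nM ATP; peak/baseline fluorescence over 4 min gave inhibition (buffer instead of ATP = 100%), from which IC50 was derived.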
# Chain of human P2X3 receptor (P56373 whole entry): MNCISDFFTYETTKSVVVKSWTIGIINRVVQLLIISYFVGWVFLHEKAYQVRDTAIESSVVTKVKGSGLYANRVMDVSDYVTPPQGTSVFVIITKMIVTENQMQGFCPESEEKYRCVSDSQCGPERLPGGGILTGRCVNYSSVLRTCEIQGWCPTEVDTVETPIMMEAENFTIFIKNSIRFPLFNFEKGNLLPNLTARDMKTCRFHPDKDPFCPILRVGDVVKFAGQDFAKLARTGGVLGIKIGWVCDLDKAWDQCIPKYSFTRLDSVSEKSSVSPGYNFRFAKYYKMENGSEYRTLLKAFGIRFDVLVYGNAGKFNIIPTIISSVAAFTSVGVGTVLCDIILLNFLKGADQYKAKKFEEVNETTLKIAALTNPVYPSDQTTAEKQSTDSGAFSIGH
row,SMILES,IC50
1,O=c1cc[nH]/c(=N\c2ccc(Oc3ccon3)cc2)n1Cc1ccc(Cl)cc1 [Compound I-447],< 30 µM
2,O=C(O)c1cccc(Oc2ccc(/N=c3\[nH]ccc(=O)n3Cc3ccc(Cl)cc3)cc2)n1 [Compound I-448],< 30 µM
3,O=C(O)c1cccc(Oc2ccc(Nc3nc4ccccc4n3Cc3ccc(Cl)cc3)cc2)n1 [Compound I-455],< 30 µM
4,O=C(O)c1cn(Cc2ccc(Cl)cc2)c2cc(Nc3ccc(Oc4ccc(F)cn4)cc3)ccc2c1=O [Compound I-461],< 30 µM
5,"CN(C)c1ccc(Nc2ccc(Oc3ccc(F)cn3)cc2)c(Cc2ccc(Cl)cc2)c1 [Compound I-464, 1-(4-chlorobenzyl)-3-dimethylamino-6-[4-(5-fluoro-2-pyridyloxy)phenylamino]benzene]",< 30 µM
6,"COC(=O)c1cccc(Oc2ccc(Nc3ccn(C(C)C)c(=O)c3Cc3ccc(Cl)cc3)cc2)n1 [Compound I-465, 3-(4-chloro-benzyl)-1-isopropyl-4-[4-(6-methoxycarbonyl-2-pyridyloxy)phenylamino]pyridin-2(1H)-one]",< 30 µM
7,CC(C)n1ccc(Nc2ccc(Oc3cccc(C(N)=O)n3)cc2)c(Cc2ccc(Cl)cc2)c1=O [Compound I-467],< 30 µM
8,"CC(C)(C)c1cc(Nc2ccc(Oc3cccc(C(N)=O)n3)cc2)n(Cc2ccc(Cl)cc2)n1 [Compound I-468, 3-t-butyl-1-(4-chlorobenzyl)-5-[4-(6-carbamoyl-2-pyridyloxy)phenylamino]pyrazole]",< 30 µM
9,O=C(O)c1cccc(Oc2ccc(Nc3nc4ccccc4n3Cc3ccc(F)cc3)cc2)n1 [Compound I-470],< 30 µM
10,CSc1ncc(Nc2ccc(Oc3ccc(F)cn3)cc2)c(Cc2ccc(F)cc2)n1 [Compound I-479],< 30 µM
11,"CN(C)c1ncc(Nc2ccc(Oc3ccc(F)cn3)cc2)c(Cc2ccc(F)cc2)n1 [Compound I-481, 2-dimethylamino-4-(4-fluorobenzyl)-5-[4-(5-fluoro-2-pyridyloxy)phenylamino]pyrimidine]",< 30 µM

# Same assay, conditions: human P2X3 receptor in C6BU-1 cells; Test Example 1-2 (compounds I-301 to I-483); read-out: P2X3 IC50
row,SMILES,IC50
1,CCc1c[nH]c2cc(Nc3ncc(NC(=O)C4CCOCC4)c(=O)n3Cc3ccc(Cl)cc3)ccc12 [Compound I-416],0.406 µM
2,O=C(NCCCO)c1cn(Cc2ccc(Cl)cc2)c(Nc2ccc(Oc3cccc(F)n3)cc2)nc1=O [Compound I-418],0.045 µM
3,O=C(NCc1ccoc1)c1cn(Cc2ccc(Cl)cc2)c(Nc2ccc(Oc3cccc(F)n3)cc2)nc1=O [Compound I-419],0.055 µM
4,Cc1cc(CNC(=O)c2cn(Cc3ccc(Cl)cc3)c(Nc3ccc(Oc4cccc(F)n4)cc3)nc2=O)no1 [Compound I-420],0.088 µM
5,O=C(Nc1cc[nH]n1)c1cn(Cc2ccc(Cl)cc2)c(Nc2ccc(Oc3cccc(F)n3)cc2)nc1=O [Compound I-421],0.017 µM
6,O=C(O)c1cccc(Oc2ccc(/N=c3\[nH]cc(-c4ccccc4)c(=O)n3Cc3ccc(Cl)cc3)cc2)n1 [Compound I-422],0.003 µM
7,NNC(=O)c1c[nH]/c(=N\c2ccc(Oc3ccon3)cc2)n(Cc2ccc(Cl)cc2)c1=O [Compound I-423],0.081 µM
8,N#CCNC(=O)c1c[nH]/c(=N\c2ccc(Oc3ccon3)cc2)n(Cc2ccc(Cl)cc2)c1=O [Compound I-425],0.021 µM
9,N#CCNC(=O)c1c[nH]/c(=N\c2ccc(Oc3ccc(F)cn3)cc2)n(Cc2ccc(Cl)cc2)c1=O [Compound I-426],0.015 µM
10,C#CCNC(=O)c1c[nH]/c(=N\c2ccc(Oc3ccc(F)cn3)cc2)n(Cc2ccc(Cl)cc2)c1=O [Compound I-427],0.005 µM
11,CCOc1cn(Cc2ccc(Cl)cc2)c(Nc2ccc(Oc3cccc(C#N)n3)cc2)nc1=O [Compound I-429],0.441 µM
12,CNC(=O)CNC(=O)c1cn(Cc2ccc(Cl)cc2)c(Nc2ccc(Oc3cccc(F)n3)cc2)nc1=O [Compound I-430],0.083 µM
13,NC(=O)CNC(=O)c1cn(Cc2ccc(Cl)cc2)c(Nc2ccc(Oc3cccc(F)n3)cc2)nc1=O [Compound I-431],0.044 µM
14,CCC(=O)Nc1c[nH]/c(=N\c2ccc(Oc3cc(C)c(Cl)nn3)cc2)n(Cc2ccc(Cl)cc2)c1=O [Compound I-432],0.012 µM
15,CCC(=O)Nc1c[nH]/c(=N\c2ccc(Oc3cc(C)cnn3)cc2)n(Cc2ccc(Cl)cc2)c1=O [Compound I-433],0.099 µM
16,CCCc1c[nH]/c(=N\c2ccc(Oc3cccc(C#N)n3)cc2)n(Cc2ccc(Cl)cc2)c1=O [Compound I-434],0.193 µM
17,O=C(Nc1c[nH]/c(=N\c2ccc(Oc3ccc(C(F)(F)F)nn3)cc2)n(Cc2ccc(Cl)cc2)c1=O)C1CCOCC1 [Compound I-435],0.003 µM
18,CCCc1c[nH]/c(=N\c2ccc(Oc3cccc(C(=O)O)n3)cc2)n(Cc2ccc(Cl)cc2)c1=O [Compound I-436],0.013 µM
19,CCOC(=O)c1noc(-c2c[nH]/c(=N\c3ccc(Oc4ccon4)cc3)n(Cc3ccc(Cl)cc3)c2=O)n1 [Compound I-437],0.124 µM
20,COC(=O)c1nnc(-c2c[nH]/c(=N\c3ccc(Oc4ccon4)cc3)n(Cc3ccc(Cl)cc3)c2=O)o1 [Compound I-438],0.109 µM
21,O=c1c(-c2nnco2)c[nH]/c(=N\c2ccc(Oc3ccon3)cc2)n1Cc1ccc(Cl)cc1 [Compound I-439],0.047 µM
22,O=C(O)c1cccc(Oc2ccc(/N=c3\[nH]cc(Br)c(=O)n3Cc3ccc(Cl)cc3)cc2)n1 [Compound I-440],0.015 µM
23,NC(=O)c1noc(-c2c[nH]/c(=N\c3ccc(Oc4ccon4)cc3)n(Cc3ccc(Cl)cc3)c2=O)n1 [Compound I-441],0.069 µM
24,CNC(=O)c1noc(-c2c[nH]/c(=N\c3ccc(Oc4ccon4)cc3)n(Cc3ccc(Cl)cc3)c2=O)n1 [Compound I-442],0.08 µM

row,SMILES,IC50
1,C[C@@H](NC(=O)c1cn(Cc2ccc(Cl)cc2)c(Nc2ccc(Oc3cccc(F)n3)cc2)nc1=O)C(N)=O [Compound I-443],0.036 µM
2,COC(=O)C(C)(C)Cn1c(=O)cc(Nc2ccc(Oc3ccc(F)cn3)c(C)n2)n(C[C@H]2CC[C@H](C)CC2)c1=O [Compound I-444],0.009 µM
3,Cc1nc(Nc2cc(=O)n(CC(C)(C)C(=O)O)c(=O)n2C[C@H]2CC[C@H](C)CC2)ccc1Oc1ccc(F)cn1 [Compound I-445],0.007 µM
4,COC(=O)[C@H](CO)NC(=O)c1c[nH]/c(=N\c2ccc(Oc3ccon3)cc2)n(Cc2ccc(Cl)cc2)c1=O [Compound I-446],0.047 µM
5,O=c1c(-c2ncno2)c[nH]/c(=N\c2ccc(Oc3ccon3)cc2)n1Cc1ccc(Cl)cc1 [Compound I-449],0.179 µM
6,C=CCNC(=O)c1c[nH]/c(=N\c2ccc(Oc3ccon3)cc2)n(Cc2ccc(Cl)cc2)c1=O [Compound I-450],0.021 µM
7,O=C(NCc1ccccc1)c1c[nH]/c(=N\c2ccc(Oc3ccon3)cc2)n(Cc2ccc(Cl)cc2)c1=O [Compound I-451],0.104 µM
8,O=C(NCC(F)(F)F)c1c[nH]/c(=N\c2ccc(Oc3ccon3)cc2)n(Cc2ccc(Cl)cc2)c1=O [Compound I-452],0.098 µM
9,O=C(O)c1coc(-c2c[nH]/c(=N\c3ccc(Oc4ccon4)cc3)n(Cc3ccc(Cl)cc3)c2=O)n1 [Compound I-454],0.16 µM
10,"CCn1c(=O)[nH]c(Nc2ccc(Oc3cccc(C#N)n3)cc2)c(Cc2ccc(Cl)cc2)c1=O [Compound I-456, 5-(4-chlorobenzyl)-6-[4-(6-cyano-2-pyridyloxy)phenylamino]-3-ethylpyrimidin-2,4(1H,3H)-dione]",0.009 µM
11,CCn1c(=O)[nH]c(Nc2ccc(Oc3cccc(C(=O)O)n3)cc2)c(Cc2ccc(Cl)cc2)c1=O [Compound I-457],0.009 µM
12,CCn1c(=O)[nH]c(Nc2ccc(Oc3cccc(C(N)=O)n3)cc2)c(Cc2ccc(Cl)cc2)c1=O [Compound I-458],0.015 µM
13,"CCOC(=O)c1cn(Cc2ccc(Cl)cc2)c(Nc2ccc(Oc3ccc(F)cn3)cc2)cc1=O [Compound I-463, 1-(4-chloro-benzyl)-2-[4-(5-fluoro-2-pyridyloxy)phenylamino]-5-(ethoxycarbonyl)pyridin-4(1H)-one]",0.026 µM
14,CC(C)n1ccc(Nc2ccc(Oc3cccc(C(=O)O)n3)cc2)c(Cc2ccc(Cl)cc2)c1=O [Compound I-466],0.597 µM
15,COC(=O)c1cccc(Oc2ccc(/N=c3\[nH]cc(C(F)(F)F)c(=O)n3Cc3ccc(Cl)cc3)cc2)n1 [Compound I-471],0.683 µM
16,O=C(O)c1cccc(Oc2ccc(/N=c3\[nH]cc(C(F)(F)F)c(=O)n3Cc3ccc(Cl)cc3)cc2)n1 [Compound I-472],0.015 µM
17,CCCn1c(=O)cc(Nc2ccc(Oc3cccc(C#N)c3)c(C)n2)n(Cc2ccc(C)cc2)c1=O [Compound I-473],0.029 µM
18,CCCn1c(=O)cc(Nc2ccc(Oc3cccc(C(=O)O)c3)c(C)n2)n(Cc2ccc(C)cc2)c1=O [Compound I-474],0.005 µM
19,COC(=O)c1cccc(Oc2ccc(/N=c3\[nH]cc(C4CCOCC4)c(=O)n3Cc3ccc(Cl)cc3)cc2)n1 [Compound I-476],0.066 µM
20,CC(C)(C)c1c[nH]/c(=N\c2ccc(Oc3cccc(C(=O)O)n3)cc2)n(Cc2ccc(Cl)cc2)c1=O [Compound I-477],0.005 µM
21,O=C(O)c1cccc(Oc2ccc(/N=c3\[nH]cc(C4CCOCC4)c(=O)n3Cc3ccc(Cl)cc3)cc2)n1 [Compound I-478],0.005 µM
22,O=C(O)c1cccc(Oc2ccc(/N=c3\[nH]cc(-c4ccccn4)c(=O)n3Cc3ccc(Cl)cc3)cc2)n1 [Compound I-480],0.007 µM
23,CC(C)(C)c1c[nH]/c(=N\c2ccc(Oc3cccc(C(N)=O)n3)cc2)n(Cc2ccc(Cl)cc2)c1=O [Compound I-482],0.251 µM
24,NC(=O)c1cccc(Oc2ccc(/N=c3\[nH]cc(C4CCOCC4)c(=O)n3Cc3ccc(Cl)cc3)cc2)n1 [Compound I-483],0.017 µM

# — patent publication US9550763B2, “Heterocyclic ring and carbocyclic derivative” (Shionogi & Co., Ltd., priority 2012, dated 2017)
